From ChEMBL document CHEMBL4184182, “Studies on interactions of carbazole derivatives with DNA, cell image, and cytotoxicity” (Bioorg Med Chem, 2018) come the findings set out here.

Assay [1] concerns dsDNA. Kind of assay: Binding affinity to 26-mer duplex DNA (unknown origin) assessed as red shift at 15 uM after 5 mins by UV-Visible absorbance titration method. In kind it is nucleic-acid assay.
For assay [2], the system named is Quadruplex DNA. Kind of assay: Binding affinity to c-Kit G-quadruplex DNA (unknown origin) assessed as compound fluorescence life time at 5 uM after 5 mins by fluorescence titration method (reference value: 0.192 nanoseconds). In kind it is nucleic-acid assay.

On to `CCn1c2ccccc2c2cc(/C=C(\C#N)c3ccc[n+](C)c3)ccc21.[I-]`, for which, in assay [1], the Activity came to 17 nm. For `CCn1c2ccccc2c2cc(/C=C/c3sc4ccccc4[n+]3CC)ccc21.[I-]`, the Time in assay [2] is 1.51 nanoseconds.
